Assay results reported in PMC10041534, “Development of Fluorescent 4-[4-(3H-Spiro[isobenzofuran-1,4′-piperidin]-1′-yl)butyl]indolyl Derivatives as High-Affinity Probes to Enable the Study of σ Receptors via Fluorescence-Based Techniques” (Journal of Medicinal Chemistry, 2023).

What was measured:
σ1 receptor [1] = target: T1, σ1 receptor (Cavia porcellus, UniProt Q60492); assay: σ1 receptor radioligand binding assay with (+)-[3H]pentazocine, guinea pig brain membranes; conditions: mean of at least two experiments in duplicate, read-out: Ki ± SEM σ1
T1 construct: from tissue; host or cells: guinea pig brain without cerebellum (male Dunkin guinea pigs, Envigo)
T1 sequence (Q60492 whole entry): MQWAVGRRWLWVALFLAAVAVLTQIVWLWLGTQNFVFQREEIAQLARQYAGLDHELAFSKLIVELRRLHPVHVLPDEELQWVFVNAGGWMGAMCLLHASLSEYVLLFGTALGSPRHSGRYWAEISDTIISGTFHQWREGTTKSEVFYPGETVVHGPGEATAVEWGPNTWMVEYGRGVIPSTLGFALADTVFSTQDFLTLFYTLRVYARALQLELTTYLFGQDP
Description: (§1) All of the procedures for the binding assays were previously described. σ1 and σ2 receptor binding assays were carried out according to the literature.[25] […] Incubations were stopped by addition of 1 mL of ice-cold buffer [50 mM TRIS (pH 8.0)], and then the suspension was filtered through GF/B presoaked in 0.3% polyethylenimine (PEI) for at least 60 min prior to use. The filters were washed twice with 1 mL of ice-cold buffer. […] Incubations were stopped by addition of 1 mL of ice-cold buffer [50 mM TRIS (pH 8.0)], and then the suspension was filtered through GF/B presoaked in 0.5% polyethylenimine (PEI) for at least 60 min prior to use. The filters were washed twice with 1 mL of ice-cold buffer. […] Scatchard parameters (Kd and Bmax) and apparent inhibition constants (Ki) were determined by nonlinear curve fitting using GraphPad Prism (version 5.0).[64]

σ2 receptor [2] = target: T2, σ2 receptor (Rattus norvegicus, UniProt Q5U3Y7); assay: σ2 receptor radioligand binding assay with [3H]DTG, rat liver membranes; conditions: for Ki: [3H]DTG with 1 μM (+)-pentazocine, rat liver membranes, mean of at least two experiments in duplicate, read-out: Ki ± SEM σ2
T2 construct: from tissue; host or cells: rat liver (Wistar Hannover rats, Envigo)
T2 sequence (Q5U3Y7 1-176): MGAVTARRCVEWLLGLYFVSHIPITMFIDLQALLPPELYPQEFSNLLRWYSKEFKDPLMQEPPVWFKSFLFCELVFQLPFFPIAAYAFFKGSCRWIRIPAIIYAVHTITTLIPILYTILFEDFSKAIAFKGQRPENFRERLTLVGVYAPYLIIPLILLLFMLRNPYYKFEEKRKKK
Description: as §1

MCF7 cells [3] = assay: Trypan blue assay; type: cell-based, human; conditions: conditions of confocal microscopy, data not shown
σ2 receptor [4] = target: T3, σ2 receptor (Homo sapiens, UniProt Q5BJF2); assay: Flow cytometry saturation binding assay in MCF7 cells; conditions: σ1 masked by (+)-pentazocine
T3 sequence (Q5BJF2 whole entry): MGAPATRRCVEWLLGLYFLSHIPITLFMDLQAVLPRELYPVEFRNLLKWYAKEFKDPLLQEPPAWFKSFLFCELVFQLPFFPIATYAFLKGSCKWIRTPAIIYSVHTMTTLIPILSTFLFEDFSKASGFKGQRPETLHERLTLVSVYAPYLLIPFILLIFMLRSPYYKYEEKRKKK
Description: Similarly, 2 × 10^5 MCF7 cells/well were seeded in a 12-well plate and allowed to recover for 24 h at 37 °C.
At the end of the incubation periods, cells were washed twice with PBS, detached with 200 mL of Cell Dissociation Solution (Sigma Chemical Co.) for 10 min at 37 °C, centrifuged at 13000g for 5 min, and resuspended in 500 mL of PBS. The fluorescence was recorded using a Bio-Guava easyCyte 5 Flow Cytometry System (Millipore, Billerica, MA), with a 530 nm band-pass filter. For each analysis, 50000 events were collected and analyzed with the InCyte software (Millipore).

[5] = Fluorescence spectroscopy and quantum yield measurements; type: physicochemical; conditions: CHCl3
σ1 receptor [6] = target: T4, σ1 receptor (Homo sapiens, UniProt Q99720); assay: Flow cytometry studies in MCF7σ1 cells; type: cell-based
T4 construct: expressed in transfected cells
T4 sequence (Q99720 whole entry, species assumed): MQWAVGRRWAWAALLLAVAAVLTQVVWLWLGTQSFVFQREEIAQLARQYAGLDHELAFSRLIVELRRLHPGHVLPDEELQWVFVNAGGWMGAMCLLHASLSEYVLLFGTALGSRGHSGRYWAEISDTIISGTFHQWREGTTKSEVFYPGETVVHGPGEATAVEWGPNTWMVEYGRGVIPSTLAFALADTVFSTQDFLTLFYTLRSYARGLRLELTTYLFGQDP

[7] = RP-HPLC degradation study in PBS buffer; type: physicochemical; conditions: 37 °C, RP-HPLC over 24 h
Description: page 12: Figure S10. RP-HPLC degradation study in buffer of compounds 19 (A) and 29 (B). Compounds were dissolved in a solution of PBS with 5% of DMSO. Then the solution was divided in 4 vials, one was used to study t0 and the other three were incubated at 37 °C for 2h, 6h and 24 h, respectively. […]

σ2 receptor [8] = target: T3, σ2 receptor; assay: Confocal microscopy, co-localization with σ2 receptor (TMEM97 ab) in fixed MCF7 cells; type: cell-based; design: This cell line was selected on the basis of its high σ2 receptor expression levels; endogenous in cells; host or cells: MCF7 (and MCF7KO, partial TMEM97 knockdown by shRNA); conditions: 5 μM, 1 h
Description: Subsequently, the cells were treated with the indicated concentrations of 19 or 29 for 1 h at 37 °C. Then, the cells were washed once with PBS, harvested by trypsinization, and resuspended in 1 mL of PBS. Then, the cell preparation for confocal microscopy by using Cytospin was carried out as described by Koh et al.,[75] followed by cell fixation with 4% paraformaldehyde at room temperature for 30 min. For the staining of σ2 receptor expression, cells were permeabilized and blocked with 0.5% Triton X-100 and 1% BSA, respectively, in PBS for 30 min at room temperature followed by incubation of the primary TMEM97 antibody (diluted 1:200 in 1% BSA/0.3% Triton-PBS, Novusbio, catalog no. NBP1-30436) overnight at 4 °C in a wet chamber. The next day, the cells were washed three times with PBS and incubated with a 1:500 dilution of a secondary anti-rabbit AlexaFluor488-labeled antibody (Invitrogen, catalog no. A-11034) for 1 h at room temperature in a wet chamber. After being washed twice with PBS, the cells were incubated with a solution containing DAPI (2.5 μg/mL, D9542) for 15 min at room temperature, followed by three washes with PBS as well as ddH2O and embedding with Vectashield (Vectashield Antifade Mounting Media, Vector Laboratories, caalog no. H-1000-10). […]

MCF7 cells [9] = assay: Live cell imaging in MCF7 cells; type: cell-based, human; conditions: live cell videos
σ2 receptor [10] = target: T3, σ2 receptor; assay: Flow cytometry studies in MCF7 and MCF7KO cells; type: cell-based; design: This cell line was selected on the basis of its high σ2 receptor expression levels; endogenous in cells; host or cells: MCF7 (and MCF7KO, partial TMEM97 knockdown by shRNA); conditions: for accumulation (mean fluorescence intensity) in MCF7 and MCF7KO cells: 10 nM-10 μM, 45 min, σ1 masked with 10 μM (+)-pentazocine; for signal in MCF7KO cells compared with MCF7 cells: flow cytometry, σ2 receptor partially silenced
Description: Subsequently, the cells were harvested by trypsinization and resuspended in 250 μL of FACS-PBS. The fluorescence intensity was measured by flow cytometry using a BD LSRFortessaTM X-20 cell analyzer (Becton Dickinson, Palo Alto, CA). For this, in total 20000 cells per sample were evaluated. The results were analyzed and quantified using BD FACSDivaTM software.

σ2 receptor [11] = target: T3, σ2 receptor; assay: Spinning disk confocal microscopy on living MCF7 cells; type: cell-based; design: This cell line was selected on the basis of its high σ2 receptor expression levels; endogenous in cells; host or cells: MCF7 (and MCF7KO, partial TMEM97 knockdown by shRNA); conditions: for subcellular localization in living MCF7 cells: 0.05 μM, 30 min; for mitochondrial localization upon co-treatment with nonfluorescent DTG: 20 μM DTG
Description: MCF7 cells (2.4 × 10^4 cells/well) were seeded on IBIDI slides (coated with polymers, Science Services) and incubated at 37 °C with 5% CO2 for 48 h. Afterward, ProlongLife (Invitrogen, catalog no. P36974) was added in a 1:100 dilution to the cells and incubated for 1 h. Subsequently, the medium was removed, and the cells were stained with 250 nM MitoTracker-Bodipy FL (Invitrogen, catalog no. P36974) in phenol red-free medium for 30 min at 37 °C with 5% CO2. […] In addition, Hoechst 33342 (0.05 μM) was added 15 min prior to measurement to counterstain for nuclei. Finally, z-stacks of the living cells were performed using an Olympus IXplore SpinSR spinning disk confocal microscope. In total, three pictures per spot were obtained. The Cy-5 intensities of the ligands based on the localization of the GFP- signal of the mitochondria were calculated by the commercially available software cellSens from Olympus. Statistical analysis was performed using GraphPad Prism (version 8).

[12] = DTG (20 μM) as non-fluorescent σ2 reference ligand
[13] = compound 2 (10 μM) as non-fluorescent σ2 reference ligand

Compound	Ki (σ1 receptor [1]) [nM]	Ki (σ2 receptor [2]) [nM]	cytotoxicity (MCF7 cells [3])	Kd (σ2 receptor [4]; [12]) [nM]	Kd (σ2 receptor [4]; [13]) [nM]	quantum yield [5] [%]	λem [5] [nm]	λex [5] [nm]	uptake in MCF7σ1 cells upon administration of (+)-pentazocine (σ1 receptor [6]; σ2 masked with 2 (10 μM), (+)-pentazocine 10 μM)	fluorescent signal in MCF7σ1 cells (σ1 receptor [6]; σ2 receptor masked with 10 μM compound 2)	stability [7]	subcellular localization versus σ2 receptor distribution (TMEM97ab) (σ2 receptor [8])	entry into living MCF7 cells (MCF7 cells [9])	accumulation (mean fluorescence intensity) in MCF7 and MCF7KO cells (σ2 receptor [10])	signal in MCF7KO cells compared with MCF7 cells (σ2 receptor [10])	subcellular localization in living MCF7 cells (σ2 receptor [11])	mitochondrial localization upon co-treatment with nonfluorescent DTG (σ2 receptor [11])	σ2 selectivity over σ1 (σ2 receptor [2]; from Ki values at σ1 and σ2) [fold]
C[N+]1=C(/C=C/C=C/C=C2\N(CCCCCC(=O)NCCCCCCn3cc(CCCCN4CCC5(CC4)OCc4ccccc45)c4ccccc43)c3ccccc3C2(C)C)C(C)(C)c2ccccc21.[I-] [Compound 19, 2-{(1E,3E)-5-[(E)-1-{6-[(6-{3-[4-(3H-Spiro[isobenzofuran-1,4′-piperidin]-1′-yl)butyl]-1H-indol-1-yl}hexyl)amino]-6-oxohexyl}-3,3-dimethylindolin-2-ylidene]penta-1,3-dien-1-yl}-1,3,3-trimethyl-3H-indol-1-ium]	51.3 ± 3.2	30.2 ± 3.5	neither 19 nor 29 was cytotoxic	13.6	19.3	52.86	678	657	abated	dose-dependent increase	stability of the two compounds was demonstrated	overlapped with the σ2 receptor distribution	rapid entry	dose-dependent manner	visibly weaker	mitochondrial localization	significantly reduced	
C[N+]1=C(/C=C/C=C/C=C2/N(CCCCCC(=O)Nc3ccc4ccn(CCCCN5CCC6(CC5)OCc5ccccc56)c4c3)c3ccccc3C2(C)C)C(C)(C)c2ccccc21.[I-] [Compound 29, 2-[(1E,3E)-5-{(Z)-1-[6-({1-[4-(3H-Spiro[isobenzofuran-1,4′-piperidin]-1′-yl)butyl]-1H-indol-6-yl}amino)-6-oxohexyl]-3,3-dimethylindolin-2-ylidene}penta-1,3-dien-1-yl]-1,3,3-trimethyl-3H-indol-1-ium]	448 ± 80	51.1 ± 5.1	neither 19 nor 29 was cytotoxic	18.7	13.8	47.83	678	657			stability of the two compounds was demonstrated	overlapped with the σ2 receptor distribution	rapid entry	dose-dependent manner	visibly weaker	mitochondrial localization	significantly reduced	~10
